Columns and labels:
rat [1] = details: Multigenerational reproductive toxicity study, sprague dawley, Oral, Gavage/Intubation, dose end: 1 generation
rat [2] = details: Sub-acute repeat dose toxicity, sprague dawley, Oral, Gavage/Intubation, dose end: 28 day, group: systemic
dog [3] = details: Subchronic oral toxicity in nonrodent, beagle, Feed, dose end: 13 week
rat [4] = details: Subchronic oral toxicity in rodents, sprague dawley, Feed, dose end: 3 month
rat [5] = details: Multigenerational reproductive toxicity study, sprague dawley, Oral, Feed, dose end: 2 generation
mouse [6] = details: Combined chronic toxicity/carcinogenicity, b6c3f1, Oral, Feed, dose end: 2 year
dog [7] = details: Subchronic oral toxicity in nonrodent, beagle, Feed, dose end: 90 day
rat [8] = details: Combined chronic toxicity/carcinogenicity, sprague dawley, Oral, Feed, dose end: 28 month
rat [9] = details: Prenatal developmental toxicity study, wistar, Oral, Gavage/Intubation, dose end: 15 GD
dog [10] = details: Chronic toxicity, beagle, Oral, Feed, dose end: 12 month
mouse [11] = details: Subchronic oral toxicity in rodents, cd1, Feed, dose end: 3 month, group: systemic
mouse [12] = details: Carcinogenicity, b6c3f1, Oral, Feed, dose end: 2 year, group: systemic
rat [13] = details: Combined chronic toxicity/carcinogenicity; fischer; Oral; Feed; dose end: 2 year; group: systemic; systemic / pathology microscopic / liver / hypertrophy + systemic / in life observation / clinical signs / hematuria + systemic / pathology …
rat [14] = details: Subchronic oral toxicity in rodents, Feed, dose end: 90 day, group: systemic
rat [15] = details: Combined chronic toxicity/carcinogenicity, fischer, Oral, Feed, dose end: 2 year, group: systemic
dog [16] = details: Subchronic oral toxicity in nonrodent, beagle, Feed, dose end: 6 month, group: systemic
rat [17] = details: Subchronic oral toxicity in rodents, fischer, Feed, dose end: 13 week, group: systemic, systemic / organ weight / liver / nos + systemic / pathology microscopic / liver / [other] + systemic / organ weight / liver / relative to …
dog [18] = details: Chronic toxicity, beagle, Oral, Feed, dose end: 12 month, group: systemic
mouse [19] = details: Subchronic oral toxicity in rodents, b6c3f1, Feed, dose end: 13 week, group: systemic, systemic / organ weight / liver / nos + systemic / pathology microscopic / liver / cellular alteration
[20] = group: offspring, systemic / in life observation / body weight / offspring (pup) weight
[21] = group: parental, systemic / organ weight / heart / relative to body weight + systemic / organ weight / kidney / relative to body weight + systemic / organ …
[22] = group: reproductive, reproductive / offspring survival early / birth index / live birth index
[23] = systemic / organ weight / liver / relative to body weight + systemic / clinical chemistry / bilirubin / total bilirubin + systemic / in life…
[24] = group: cholinesterase, cholinesterase / cholinesterase / cholinesterase / plasma cholinesterase (che) + cholinesterase / cholinesterase / cholinesterase / …
[25] = group: systemic, systemic / in life observation / body weight / body weight gain + systemic / in life observation / clinical signs / emaciation + systemic / …
[26] = group: cholinesterase, cholinesterase / cholinesterase / cholinesterase / erythrocyte cholinesterase (che)
[27] = group: cholinesterase, cholinesterase / cholinesterase / cholinesterase / erythrocyte cholinesterase (che) + cholinesterase / cholinesterase / cholinesterase / …
[28] = group: systemic, systemic / clinical chemistry / albumin-globulin ratio / albumin-globulin ratio
[29] = group: systemic, systemic / hematology / hemoglobin (hgb) / hemoglobin (hgb) + systemic / pathology microscopic / stomach / acanthosis + systemic / pathology…
[30] = group: offspring, developmental / offspring survival late / viability index / viability index
[31] = group: parental, systemic / in life observation / body weight / body weight gain
[32] = group: cholinesterase, cholinesterase / cholinesterase / cholinesterase / brain cholinesterase (che) + cholinesterase / cholinesterase / cholinesterase / …
[33] = group: systemic, systemic / clinical chemistry / cholesterol / cholesterol
[34] = group: systemic, systemic / clinical chemistry / cholesterol / cholesterol + systemic / in life observation / body weight / body weight + systemic / in life …
[35] = group: systemic, systemic / in life observation / clinical signs / pulse/pressure
[36] = group: systemic, systemic / hematology / erythrocyte (rbc) count differential / erythrocyte (rbc) + systemic / hematology / hematocrit (hct) / hematocrit (…
[37] = group: developmental, systemic / in life observation / body weight / fetal weight + developmental / developmental malformation / bone / delayed ossification + …
[38] = group: maternal, reproductive / reproductive performance / postimplantation loss / postimplantation loss + reproductive / reproductive performance / …
[39] = group: systemic, systemic / organ weight / liver / absolute
[40] = systemic / in life observation / body weight / body weight + systemic / organ weight / brain / relative to body weight + systemic / organ …
[41] = systemic / organ weight / kidney / nos + systemic / organ weight / kidney / relative to body weight
[42] = systemic / organ weight / liver / nos + systemic / pathology microscopic / liver / [other]
[43] = systemic / organ weight / liver / nos + systemic / pathology microscopic / liver / [other] + systemic / organ weight / kidney / nos
[44] = systemic / in life observation / body weight / body weight + systemic / in life observation / mortality / mortality
[45] = systemic / organ weight / liver / absolute + systemic / organ weight / liver / relative to body weight
[46] = systemic / organ weight / liver / absolute + systemic / organ weight / liver / relative to body weight + systemic / clinical chemistry / …
[47] = systemic / organ weight / liver / relative to body weight + systemic / in life observation / body weight / body weight gain + systemic / …

O=[N+]([O-])c1ccc(O)c([N+](=O)[O-])c1 [2,4-Dinitrophenol]
LEL (rat [1]; [20]): 30 mg/kg/day | LOAEL (rat [1]; [20]): > 30 mg/kg/day | NEL (rat [1]; [20]): 10 mg/kg/day | NOAEL (rat [1]; [20]): ≥ 30 mg/kg/day | LEL (rat [1]; [21]): 30 mg/kg/day | LOAEL (rat [1]; [21]): > 30 mg/kg/day | NEL (rat [1]; [21]): 10 mg/kg/day | NOAEL (rat [1]; [21]): ≥ 30 mg/kg/day | LEL (rat [1]; [22]): 30 mg/kg/day | LOAEL (rat [1]; [22]): > 30 mg/kg/day | NEL (rat [1]; [22]): 10 mg/kg/day | NOAEL (rat [1]; [22]): ≥ 30 mg/kg/day | LEL (rat [2]; systemic / clinical chemistry / bilirubin / total bilirubin): 10 mg/kg/day | NEL (rat [2]; systemic / clinical chemistry / bilirubin / total bilirubin + systemic / in life observation / clinical signs / [other] + systemic / in life…): 3 mg/kg/day | LOAEL (rat [2]; [23]): > 80 mg/kg/day | NOAEL (rat [2]; [23]): ≥ 80 mg/kg/day

COP(=S)(OC)Oc1ccc([N+](=O)[O-])cc1 [Methyl parathion]
LEL (dog [3]; [24]): 3 mg/kg/day | LOAEL (dog [3]; [24]): 3 mg/kg/day | NEL (dog [3]; [24]): 0.3 mg/kg/day | NOAEL (dog [3]; [24]): 0.3 mg/kg/day | LOAEL (dog [3]; group: systemic, systemic / in life observation / body weight / body weight gain): 3 mg/kg/day | LEL (dog [3]; [25]): 3 mg/kg/day | NOAEL (dog [3]; [25]): 0.3 mg/kg/day | NEL (dog [3]; group: systemic, systemic / in life observation / clinical signs / emaciation + systemic / in life observation / clinical signs / dehydration + systemic / in…): 0.3 mg/kg/day | LEL (rat [4]; [26]): 1.24 mg/kg/day | LOAEL (rat [4]; [26]): 1.24 mg/kg/day | NEL (rat [4]; [27]): 0.12 mg/kg/day | NOAEL (rat [4]; [27]): 0.12 mg/kg/day | LEL (rat [4]; [28]): 0.16 mg/kg/day | NEL (rat [4]; [28]): < 0.16 mg/kg/day | LOAEL (rat [4]; [29]): 1.24 mg/kg/day | NOAEL (rat [4]; [29]): 0.12 mg/kg/day | LEL (rat [5]; [30]): 2 mg/kg/day | LOAEL (rat [5]; [30]): 2 mg/kg/day | NEL (rat [5]; [30]): 0.38 mg/kg/day | NOAEL (rat [5]; [30]): 0.38 mg/kg/day | LOAEL (rat [5]; [31]): 2.3 mg/kg/day | NEL (rat [5]; [31]): 0.44 mg/kg/day | NOAEL (rat [5]; [31]): 0.44 mg/kg/day | LEL (rat [5]; group: parental, systemic / in life observation / body weight / body weight gain + systemic / in life observation / body weight / body weight): 2.3 mg/kg/day | LEL (mouse [6]; [32]): 1.6 mg/kg/day | LOAEL (mouse [6]; [32]): 1.6 mg/kg/day | NEL (mouse [6]; [32]): 0.2 mg/kg/day | NOAEL (mouse [6]; [32]): 0.2 mg/kg/day | LEL (mouse [6]; [33]): 2.1 mg/kg/day | LOAEL (mouse [6]; [33]): 2.1 mg/kg/day | NEL (mouse [6]; [34]): 0.3 mg/kg/day | NOAEL (mouse [6]; [34]): 0.3 mg/kg/day | LEL (dog [7]; [27]): 1 mg/kg/day | LOAEL (dog [7]; [27]): 1 mg/kg/day | NEL (dog [7]; [27]): 0.3 mg/kg/day | NOAEL (dog [7]; [27]): 0.3 mg/kg/day | LEL (dog [7]; [35]): 3 mg/kg/day | LOAEL (dog [7]; [35]): 3 mg/kg/day | NEL (dog [7]; [35]): 1 mg/kg/day | NOAEL (dog [7]; [35]): 1 mg/kg/day | LOAEL (rat [8]; [32]): > 2.21 mg/kg/day | NEL (rat [8]; [32]): 0.02 mg/kg/day | NOAEL (rat [8]; [32]): ≥ 2.21 mg/kg/day | LEL (rat [8]; [26]): 0.21 mg/kg/day | LEL (rat [8]; [36]): 0.21 mg/kg/day | LOAEL (rat [8]; [36]): 0.21 mg/kg/day | NEL (rat [8]; [36]): 0.02 mg/kg/day | NOAEL (rat [8]; [36]): 0.02 mg/kg/day | LEL (rat [9]; [32]): 3 mg/kg/day | LOAEL (rat [9]; [32]): > 3 mg/kg/day | NOAEL (rat [9]; [32]): ≥ 3 mg/kg/day | LOAEL (rat [9]; group: developmental, systemic / in life observation / body weight / fetal weight): 3 mg/kg/day | LEL (rat [9]; [37]): 3 mg/kg/day | NEL (rat [9]; [37]): 1 mg/kg/day | NOAEL (rat [9]; [37]): 1 mg/kg/day | LEL (rat [9]; [38]): 3 mg/kg/day | LOAEL (rat [9]; [38]): 3 mg/kg/day | NEL (rat [9]; [38]): 1 mg/kg/day | NOAEL (rat [9]; [38]): 1 mg/kg/day | LEL (dog [10]; [27]): 0.03 mg/kg/day | LOAEL (dog [10]; [27]): 0.03 mg/kg/day | NEL (dog [10]; [27]): < 0.03 mg/kg/day | NOAEL (dog [10]; [27]): < 0.03 mg/kg/day | LEL (dog [10]; [39]): 0.3 mg/kg/day | LOAEL (dog [10]; [39]): > 0.3 mg/kg/day | NEL (dog [10]; [39]): 0.1 mg/kg/day | NOAEL (dog [10]; [39]): ≥ 0.3 mg/kg/day | LOAEL (mouse [11]; systemic / in life observation / body weight / body weight): 13.5 mg/kg/day | LEL (mouse [11]; [40]): 13.5 mg/kg/day | NEL (mouse [11]; [40]): 6.5 mg/kg/day | NOAEL (mouse [11]; [40]): 6.5 mg/kg/day

Nc1c(Cl)c(Cl)nc(C(=O)O)c1Cl [Picloram]
LEL (mouse [12]; systemic / organ weight / kidney / nos): 1000 mg/kg/day | LOAEL (mouse [12]; [41]): > 1000 mg/kg/day | NEL (mouse [12]; [41]): 500 mg/kg/day | NOAEL (mouse [12]; [41]): ≥ 1000 mg/kg/day | LEL (rat [13]): 250 mg/kg/day | LOAEL (rat [13]): 250 mg/kg/day | NEL (rat [13]): < 250 mg/kg/day | NOAEL (rat [13]): < 250 mg/kg/day | LEL (rat [14]; [42]): 150 mg/kg/day | LOAEL (rat [14]; [42]): 150 mg/kg/day | NEL (rat [14]; [43]): 50 mg/kg/day | NOAEL (rat [14]; [43]): 50 mg/kg/day | LEL (rat [15]; [44]): 20 mg/kg/day | NEL (rat [15]; [44]): < 20 mg/kg/day | NOAEL (rat [15]; systemic / in life observation / body weight / body weight + systemic / pathology microscopic / liver / hypertrophy + systemic / clinical …): 20 mg/kg/day | LOAEL (rat [15]; systemic / pathology microscopic / liver / hypertrophy): 60 mg/kg/day | LEL (dog [16]; [45]): 35 mg/kg/day | LOAEL (dog [16]; [45]): 35 mg/kg/day | NEL (dog [16]; [46]): 7 mg/kg/day | NOAEL (dog [16]; [46]): 7 mg/kg/day | LEL (rat [17]): 150 mg/kg/day | LOAEL (rat [17]): 150 mg/kg/day | NEL (rat [17]): 50 mg/kg/day | NOAEL (rat [17]): 50 mg/kg/day | NEL (dog [18]; systemic / organ weight / liver / relative to body weight + systemic / in life observation / body weight / body weight gain): 35 mg/kg/day | LOAEL (dog [18]; [47]): > 175 mg/kg/day | NOAEL (dog [18]; [47]): ≥ 175 mg/kg/day | LEL (dog [18]; systemic / organ weight / liver / relative to body weight + systemic / organ weight / liver / absolute): 175 mg/kg/day | LEL (mouse [19]): 1000 mg/kg/day | LOAEL (mouse [19]): 1000 mg/kg/day | NEL (mouse [19]): < 1000 mg/kg/day | NOAEL (mouse [19]): < 1000 mg/kg/day
